Test [1] concerns c-MYC expression in L363 cells. Nature of the test: Inhibition of c-MYC expression in L363 cells (Peggy). The test is classed as cell-based, human. The note with it: Homo sapiens, L-363, L363 cells, at 10 μM; read-out: Peggy (% c-Myc expression compared to untreated). The text has this: FIG. 10 illustrates an exemplary procedure for generating analogs of Compound 1. The amine group of Compound 1 can be varied in reductive aminations to provide additional analogs. […] The table also provides an indication of an exemplary commercial source for the compounds, or (if applicable) an indication that the compound is new.

For another test, the system named is L363 cells. Nature of the test: L363 cell viability (MTS). The test is classed as cell-based, human. The conditions noted are these: Homo sapiens. The protocol:
Since two thirds of multiple myeloma cases involve deregulated c-MYC expression (Kuehl and Bergsagel, Blood 2012, 120, 2351; Shou, et al., Proc Natl Acad Sci USA 2000, 97, 228), we elected to evaluate the cell viability effects of Compound 1 in a multiple myeloma model. […] This suppression was maintained over 72 hours, which is notable given the characteristic rapid replenishment of the protein—a phenomenon that complicates targeting c-Myc at the protein level (FIG. 4C). This effect was maintained across a genetically diverse set of 4 multiple myeloma lines. We observed decreases in c-MYC translation in all lines tested, and this effect also correlated with decreases in viability (FIG. 4D).
Human multiple myeloma and Burkitt's Lymphoma cell lines L363, CA46, MM-1R, KMS-11, and MM-1S were cultured and authenticated as previously described (Simmons, et al., Molecular oncology 2014, 8, 261). All plasma derived cell lines were cultured in RPMI-1640 (2 mM L-glutamine, 10% fetal bovine serum (FBS), 100 U/ml penicillin, 100 μg/ml streptomycin: Gibco) and incubated at 37° C. with 5% CO2. Viability experiments were performed in quadruplicate on 96-well plates (Costar) at designated time and dose points. MTS reagent was then directly added, incubated at 37° C. for 90 min, and absorbance of MTS formazan was read at 500 nm on an Omega 640 spectrophotometer. Percentage cell viability was normalized to the absorbance of untreated (DMSO) wells. In the case of cells harvested for their protein or RNA, pellets were flash frozen and stored at −80° C. overnight prior to use. […]

In the next test the test system is NCI-H23. Nature of the test: NCI-60 cell growth (SRB). It counts as cell-based. The note with it: NCI-H23, Non-Small Cell Lung Cancer; 10 μM, 48 hours. The protocol: (§1) This example illustrates that Compounds 1 and 23 can be used in inhibit the growth of c-Myc expressing cancer cell lines in vitro. The NCI-60 panel of cancer cell lines (see Shoemaker, Nat. Rev. Cancer, 6, 813-823, 2006, and dtp.cancer.gov/discovery_development/nci-60/) was assayed for cell growth in the presence of 10 μM Compound 1 or Compound 23 for 48 hours. At 48 hours, the assay was terminated by fixation with TCA and determination of relative cell counts by addition of Sulforhodamine B (SRB, see Alley et al., Cancer Research, 48: 589-601, 1988.). Growth percent was determined by comparison of SRB reading of a duplicate plate of cells taken at the time of compound addition to the SRB reading at the termination of the treatment. The following table provides a summary of the percent of growth of each cell line in the panel compared to control (no treatment), as well as the mean delta and range of percent growth compared to control across the panel of cell lines for each treatment condition.

For the next test, the system named is K-562. Nature of the test: NCI-60 cell growth (SRB). It counts as cell-based. The conditions noted are these: K-562, Leukemia; 10 μM, 48 hours. The protocol: as §1
In the next test the test system is CAKI-1. Nature of the test: NCI-60 cell growth (SRB). It counts as cell-based. The note with it: CAKI-1, Renal Cancer; 10 μM, 48 hours. The protocol:
as §1

The next test deals with COLO 205. Nature of the test: NCI-60 cell growth (SRB). The test is classed as cell-based. The conditions noted are these: COLO 205, Colon Cancer; 10 μM, 48 hours. The protocol:
as §1

Another test has as its system SR. Nature of the test: NCI-60 cell growth (SRB). It counts as cell-based. The note with it: Leukemia, 10 μM, 48 hours. The protocol: as §1
In another test the test system is DU-145. Nature of the test: NCI-60 cell growth (SRB). The note with it: DU-145, Prostate Cancer; 10 μM, 48 hours. The test is classed as cell-based. The protocol: as §1
A further test has as its system MDA-MB-468. Nature of the test: NCI-60 cell growth (SRB). The test is classed as cell-based. The conditions noted are these: MDA-MB-468, Breast Cancer; 10 μM, 48 hours. The protocol:
as §1

A further test deals with HCT-116. Nature of the test: NCI-60 cell growth (SRB). The test is classed as cell-based. The note with it: HCT-116, Colon Cancer; 10 μM, 48 hours. The protocol:
as §1

The test system of the next test is HS 578T. Nature of the test: NCI-60 cell growth (SRB). The test is classed as cell-based. The conditions noted are these: Breast Cancer, 10 μM, 48 hours. The protocol: as §1
The test system of a further test is KM12. Nature of the test: NCI-60 cell growth (SRB). The test is classed as cell-based. The conditions noted are these: KM12, Colon Cancer; 10 μM, 48 hours. The protocol: as §1
The next test deals with SNB-19. Nature of the test: NCI-60 cell growth (SRB). It counts as cell-based. The conditions noted are these: SNB-19, CNS Cancer; 10 μM, 48 hours. The protocol:
as §1

The subject of the next test is OVCAR-5. Nature of the test: NCI-60 cell growth (SRB). It counts as cell-based. The conditions noted are these: OVCAR-5, Ovarian Cancer; 10 μM, 48 hours. The protocol: as §1
Another test has as its system UO-31. Nature of the test: NCI-60 cell growth (SRB). The test is classed as cell-based. The conditions noted are these: UO-31, Renal Cancer; 10 μM, 48 hours. The protocol: as §1
The next test concerns BT-549. Nature of the test: NCI-60 cell growth (SRB). The test is classed as cell-based. The conditions noted are these: BT-549, Breast Cancer; 10 μM, 48 hours. The protocol: as §1
A further test deals with SF-295. Nature of the test: NCI-60 cell growth (SRB). The test is classed as cell-based. The conditions noted are these: SF-295, CNS Cancer; 10 μM, 48 hours. The protocol: as §1
The subject of another test is PC-3. Nature of the test: NCI-60 cell growth (SRB). The test is classed as cell-based. The note with it: PC-3, Prostate Cancer; 10 μM, 48 hours. The protocol:
as §1

For a further test, the system named is SN12C. Nature of the test: NCI-60 cell growth (SRB). It counts as cell-based. The note with it: Renal Cancer, 10 μM, 48 hours. The protocol: as §1
The next test has as its system EKVX. Nature of the test: NCI-60 cell growth (SRB). The test is classed as cell-based. The conditions noted are these: Non-Small Cell Lung Cancer, 10 μM, 48 hours. The protocol: as §1
For a further test, the system named is SK-MEL-5. Nature of the test: NCI-60 cell growth (SRB). It counts as cell-based. The conditions noted are these: SK-MEL-5, Melanoma; 10 μM, 48 hours. The protocol: as §1
The test system of another test is SF-268. Nature of the test: NCI-60 cell growth (SRB). The test is classed as cell-based. The conditions noted are these: SF-268, CNS Cancer; 10 μM, 48 hours. The protocol: as §1
For the next test, the system named is RXF 393. Nature of the test: NCI-60 cell growth (SRB). It counts as cell-based. The conditions noted are these: RXF 393, Renal Cancer; 10 μM, 48 hours. The protocol: as §1
Where [2] appears, read: L-363, viability of L363 cells, read-out: IC50.

Structures are written as SMILES. Like-named read-outs stand apart in the source and are kept apart here.

Broadly, the IC50 is the concentration that inhibits the measured activity by half.

Consider `Cc1ccc(NC(=O)c2c(C)oc3ccc(O)c(CN4CCCCCC4)c23)cc1` [Compound 1], for which the activity at 10 µM in test [1] came out at 50%. For the same molecule, the half-maximal inhibitory concentration (IC50) worked out at 7.6 ± 1.1 µM with L363 cells (L-363, 72 h, after 72 hours, read-out: IC50 myeloma cell viability) and 7.6 µM in the test on L363 cells (setting [2]). Further, the “Growth Percent” value in the test on NCI-H23 is 90.23%; with K-562 it was 75.93%; in the test on CAKI-1, 75.13%; in the test with COLO 205 it was 104.20%; with SR, 83.12%; with DU-145, 103.26%. For the same molecule, the “Growth Percent” value turned out to be 73.62% with MDA-MB-468; 64.67% with HCT-116; 88.40% in the test with HS 578T; 102.59% in the test on KM12; 84.35% in the test on SNB-19; 95.63% with OVCAR-5. Further, the “Growth Percent” value in the test with UO-31 is reported as 62.74%; in the test on BT-549, 92.88%; in the test on SF-295 it was 85.34%; with PC-3, 79.90%; with SN12C, 84.31%; with EKVX, 83.79%. Further, the “Growth Percent” value is 86.08% with SK-MEL-5, 100.73% in the test on SF-268 and 81.36% in the test on RXF 393.

With `Cc1oc2ccc(O)c(CN3CCCCCC3)c2c1C(=O)Nc1ccc(C(F)(F)F)cc1` [Compound 23], the activity at 10 µM in test [1] was found to be 0.44%. For the same molecule, the IC50 came to 3.64 µM in the test with L363 cells (L-363, L363, read-out: IC50) and 3.6 µM in the test with L363 cells (setting [2]). Besides, the “Growth Percent” value with NCI-H23 is recorded as 69.93%; in the test on K-562, 29.63%; in the test on CAKI-1, 50.46%; in the test with COLO 205, 48.73%; in the test on SR it was −8.44%; in the test with DU-145, 64.80%. Further, the “Growth Percent” value with MDA-MB-468 turned out to be 5.74%; with HCT-116 it was 32.68%; with HS 578T it was 65.50%; in the test with KM12 it was 65.50%; in the test with SNB-19, 69.94%; in the test on OVCAR-5, 85.79%. The “Growth Percent” value in the test with UO-31 is 40.69%; with BT-549 it was 78.51%; in the test with SF-295, 48.84%; in the test with PC-3, 45.70%; in the test on SN12C it was 66.72%; in the test on EKVX, 64.06%. Also, the “Growth Percent” value is 69.97% with SK-MEL-5, 75.44% in the test on SF-268 and 50.40% in the test with RXF 393.

Source of the values: patent publication US11014902B2, “MYC G-quadruplex stabilizing small molecules and their use” (The United States of America, as represented by the …, priority 2015, dated 2021).
